Experimental findings from patent publication US20220378676A1, “COMPOSITION FOR ENHANCING SKIN ELASTICITY OR IMPROVING SKIN WRINKLES” (AMOREPACIFIC CORPORATION, priority 2021, published 2022) are described below.

In test [1] the test system is RPE/Smo-GFP primary cilia model cells. Description: Assessment of activation of primary cilia inhibited by particulate matter (PM2.5). It counts as cell-based, human. To be noted: PM2.5 50 ug/ml, 100 μM, 24 hours. How it is done:
Particulate matter (PM2.5) was treated in RPE/Smo-GFP, which was the primary cilia model cells of Experimental Example 2. Specifically, particulate matter was directly collected in the air (37.34° N, 127.27° E, 167 m above sea level) using a Teflon filter (Teflon filter, Zefluor, Pall Life Science, Ann Arbor, Mich., USA). Then, this was treated at a concentration of 50 ug/ml in the cell culture medium. Thereafter, after treatment with 100 μM of 2-isopropylmalic acid for 24 hours, the fluorescence of Smo-GFP was visually observed using a fluorescence microscope, and then the production rate and length of primary cilia were measured and shown in FIGS. 4 and 5. The production rate of primary cilia was expressed as the ratio of the number of cells having primary cilia to the total number of cells as a percentage, and the length of primary cilia was a measure of the actual length of all cilia observed under a microscope. As a positive control, SAG (SMO agonist, Calbiochem Inc.), which was a primary cilia production promoting substance, was used.

Another test has as its system c-Jun. Description: c-Jun phosphorylation in particulate matter-treated fibroblasts (western blotting). It counts as cell-based. To be noted: human-derived fibroblasts, PM2.5, 100 μM, 24 hours; effect similar to SP600125. As to the method: Human-derived fibroblasts (LONZA Inc.) were treated with particulate matter (PM2.5). Then, after treatment with 100 μM of 2-isopropylmalic acid for 24 hours, cell lysate was made, protein was quantified, and the same amount of protein was separated by electrophoresis, and c-Jun, p-c-Jun (phosphorylated c-Jun) was performed by western blotting.

In the next test the test system is collagen. Description: Collagen expression in particulate matter-treated fibroblasts (western blotting). It counts as cell-based. To be noted: human-derived fibroblasts, PM2.5, 100 μM, 24 hours.
Test [2] relates to MMP-1. Description: MMP-1 expression in particulate matter-treated fibroblasts (western blotting). To be noted: human-derived fibroblasts, PM2.5, 100 μM, 24 hours. It counts as cell-based.
For a further test, the system named is IL-6. Description: IL-6 expression in particulate matter-treated fibroblasts (ELISA). In kind it is cell-based. To be noted: human-derived fibroblasts, PM2.5 50 ug/mL, 100 μM, 24 hours. How it is done:
(§1) Human-derived fibroblasts (LONZA Inc.) were transfected with siRNA for IFT88 (siIFT88) or scrambled siRNA (SC), respectively, and then were treated with 50 ug/mL of particulate matter (PM2.5) and 100 μM of 2-isopropylmalic acid for 24 hours. Thereafter, the expression levels of IL-6 and TNF-α, which were inflammatory cytokines, were measured in culture conditions by ELISA assay, and the results were shown in FIG. 9.

In test [3] the test system is RPE/Smo-GFP primary cilia model cells. Description: Assessment of primary ciliary activation (confocal microscopy). In kind it is cell-based, human. To be noted: 20 μM, 100 μM, 24 hours, vs control group. How it is done: In order to confirm the primary cilia activation effect of 2-isopropylmalic acid, RPE/Smo-GFP, primary cilia model cells, was prepared. Specifically, human telomerase-immortalized retinal pigmented epithelial (RPE) cells (ATCC Inc.) were transformed with Smo-GFP plasmid (Addgene Inc.) to prepare RPE/Smo-GFP. After treating RPE/Smo-GFP with 2-isopropylmalic acid (Sigma Aldrich Inc.) at different concentrations (20 μM, 100 μM) for 24 hours, the primary cilia production rate and primary cilia length were measured by confocal microscopy (LSM510; Carl Zeiss Microimaging Inc., Thornwood, N.Y.) and the results were shown in FIGS. 2 and 3. The production rate of primary cilia was expressed as the ratio of the number of cells having primary cilia to the total number of cells as a percentage, and the length of primary cilia was a measure of the actual length of all cilia observed under a microscope. As a positive control, SAG (SMO agonist, Calbiochem Inc.), which was a primary cilia production promoting substance, was used.

In test [4] the test system is MMP-1. Description: Inhibition of MMP-1 expression in an artificial skin model (immunocytochemistry, image analysis). In kind it is cell-based. To be noted: full-thickness human 3D-skin model, PM2.5 100 ug/mL, 50 uM, 100 uM, 48 hours. How it is done: The effect of 2-IPMA on the skin was evaluated using a full-thickness human three-dimensional (3-D)-skin model. The full-thickness human 3D-skin model was fabricated in the following way. An artificial dermal layer was formed by loading a mixture of collagen (Nutragen, Advanced Biomatrix Inc.) and fibroblasts (NDFn, ThermoFisher Inc.) in a volume of 400 ul in Transwell® (Corning Inc.). Thereafter, a fibroblast culture medium (M106, Gibco Inc.) was put on the artificial dermal layer and cultured for 7 days to stabilize the artificial dermal layer. Next, keratinocytes (HEKn, ThermoFisher Inc.) were seeded on the artificial dermal layer, and cultured in keratinocyte culture medium (EpiLife, Gibco Inc.) for 1 day, followed by epidermal layer production medium (CnT-3DPR, CellnTEC) for 1 day, and then cultured in the same epidermal layer production medium for 10 days in a state of exposure to air to form an artificial epidermal layer, thereby constructing a full-thickness human 3D-skin model. 100 ug/mL of particulate matter (PM2.5) and 2-isopropylmalic acid (50 uM, 100 uM) were treated in the full-thickness human three-dimensional skin model constructed in this way for 48 hours. Thereafter, hematoxylin-eosin (H&E) staining and MMP-1 immunocytochemistry were performed, and the results were shown in FIG. 10.

The test system of another test is TNF-α. Description: TNF-α expression in particulate matter-treated fibroblasts (ELISA). To be noted: human-derived fibroblasts, PM2.5 50 ug/mL, 100 μM, 24 hours. In kind it is cell-based. How it is done:
as §1

As to `CC(C)C(O)(CC(=O)O)C(=O)O` (stereo not shown) [2-isopropylmalic acid], in test [1], the “length of primary cilia” value is listed as “getting longer” and the “production of primary cilia suppressed by particulate matter” value was “restored”. Further, the “phosphorylation of c-Jun by particulate matter” value in the test with c-Jun is “suppressed”. The collagen expression result with collagen was “increased”. In addition, the MMP-1 expression result in the test on MMP-1 [2] is on record as “decreased”. For the same compound, the “expression of IL-6 increased by particulate matter” value in the test with IL-6 was “reduced”. Besides, in test [3], the “length of primary cilia” value is listed as “increased” and the “proportion of cells with primary cilia (production rate of primary cilia)” value is recorded as “statistically significantly higher than that of the control group”. Moreover, the “expression of MMP-1 increased by the particulate matter” value with MMP-1 [4] is “decreased”. The “expression of TNF-α increased by particulate matter” value with TNF-α was “reduced”.
